From publication PMC3355227 (ACS Chemical Biology, 2012)
Where a SMILES comes first, the peptide text is derived from it. Where no end group is shown, it is not given here. [ ]: non-standard residue; d: D form. The star is where a group is joined. pT = C[C@@H](OP(=O)(O)O)[C@H](N)C(=O)O; Hyp = O=C(O)[C@@H]1C[C@@H](O)CN1; Butyl(4-Ph) = c1ccc(CCCC*)cc1

Tests used:
[1] = molecular target: Flag-Plk2 (K108M) (Mus musculus, UniProt P53351, K108M); assay: Peptide pull-down assay from mitotic 293T cell lysates, Plk2; conditions: bead-immobilized peptide, anti-Flag immunoblot
Sequence of Flag-Plk2 (K108M) (P53351 whole entry K108M): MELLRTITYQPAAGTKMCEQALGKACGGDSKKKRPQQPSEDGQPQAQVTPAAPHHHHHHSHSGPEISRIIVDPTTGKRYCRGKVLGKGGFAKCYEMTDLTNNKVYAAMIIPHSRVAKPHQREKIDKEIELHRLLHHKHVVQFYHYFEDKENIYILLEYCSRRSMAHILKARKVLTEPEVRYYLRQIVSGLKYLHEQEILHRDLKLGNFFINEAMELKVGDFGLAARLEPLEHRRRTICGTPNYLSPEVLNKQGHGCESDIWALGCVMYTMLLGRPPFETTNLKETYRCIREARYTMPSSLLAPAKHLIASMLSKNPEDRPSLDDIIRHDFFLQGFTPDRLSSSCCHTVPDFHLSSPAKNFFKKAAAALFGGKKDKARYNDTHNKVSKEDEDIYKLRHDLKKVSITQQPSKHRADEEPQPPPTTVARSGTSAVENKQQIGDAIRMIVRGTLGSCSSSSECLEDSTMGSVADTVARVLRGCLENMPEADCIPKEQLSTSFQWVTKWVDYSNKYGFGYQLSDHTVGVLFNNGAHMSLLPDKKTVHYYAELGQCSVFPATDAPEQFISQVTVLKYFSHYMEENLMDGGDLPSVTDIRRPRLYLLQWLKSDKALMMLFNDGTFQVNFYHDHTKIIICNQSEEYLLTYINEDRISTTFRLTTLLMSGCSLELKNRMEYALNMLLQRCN

[2] = molecular target: HA-EGFP-Plk1 (Plk1 PBD) in mitotic 293A cell lysates (Homo sapiens, UniProt P53350); assay: ELISA-based PBD-binding inhibition assay; conditions: relative comparison; oxime libraries tested as crude reaction mixtures
Sequence of HA-EGFP-Plk1 (Plk1 PBD) in mitotic 293A cell lysates (P53350 whole entry): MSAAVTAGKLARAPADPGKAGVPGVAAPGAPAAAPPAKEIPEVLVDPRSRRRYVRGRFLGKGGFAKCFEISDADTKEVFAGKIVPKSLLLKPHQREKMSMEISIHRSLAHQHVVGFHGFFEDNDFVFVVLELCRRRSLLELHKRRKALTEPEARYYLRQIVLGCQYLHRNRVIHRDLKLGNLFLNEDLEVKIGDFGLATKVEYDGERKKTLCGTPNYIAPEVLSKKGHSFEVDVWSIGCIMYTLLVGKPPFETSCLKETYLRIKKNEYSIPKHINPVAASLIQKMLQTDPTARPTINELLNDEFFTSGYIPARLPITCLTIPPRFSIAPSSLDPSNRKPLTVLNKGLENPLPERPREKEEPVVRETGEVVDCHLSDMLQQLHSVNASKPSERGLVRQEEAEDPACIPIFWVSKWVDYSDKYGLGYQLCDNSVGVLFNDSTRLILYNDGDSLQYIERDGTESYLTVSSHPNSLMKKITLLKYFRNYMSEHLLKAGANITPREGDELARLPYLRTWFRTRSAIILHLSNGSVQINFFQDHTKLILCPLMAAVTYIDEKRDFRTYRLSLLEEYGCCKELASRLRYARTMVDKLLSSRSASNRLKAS

Molecule	band for binding to Plk2 in pull-down [1]	band for binding to Plk2 in pull-down ([1]; listed as 7*)	relative binding affinity in ELISA-based Plk1 inhibition assay [2]
CC(=O)N1C[C@H](OCCCCc2ccccc2)C[C@H]1C(=O)N[C@@H](CC(C)C)C(=O)N[C@@H](Cc1c[nH]cn1)C(=O)N[C@@H](CO)C(=O)N[C@H](C(N)=O)[C@@H](C)OP(=O)(O)O [compound 7]	faint band	not seen	
CC(=O)N1C[C@H](OCCCCc2ccccc2)C[C@H]1C(=O)N[C@@H](CC(C)C)C(=O)N[C@@H](Cc1c[nH]cn1)C(=O)N[C@@H](C)C(=O)N[C@H](C(N)=O)[C@@H](C)OP(=O)(O)O [7(S4A)] (Ac-[Hyp](Butyl(4-Ph))LHA[pT]-NH2; N-terminus and C-terminus assumed)			significant loss of affinity
8(S4A): variant of 8 with the serine residue replaced by alanine (P(Butyl(4-Ph))LHA[pT])			significant loss of affinity
